Assay results taken from the NIST ThermoML archive (doi:10.1021/je100734t).
Numbers after ± are expanded uncertainties.

Experiment: xn = mol fraction of the nth substance listed
Details: 101 kPa, Liquid; for speed of sound: Pulse-echo method

CCCCCCCCCO [nonan-1-ol] + Cc1ccc(C)cc1
Details	mass density, 293.15 K [kg/m3]	mass density, 303.15 K [kg/m3]	mass density, 313.15 K [kg/m3]	speed of sound, 293.15 K [m/s]	speed of sound, 303.15 K [m/s]	speed of sound, 313.15 K [m/s]
x2 = 0	827.7 ± 0.43	820.82 ± 0.44	813.88 ± 0.45	1381 ± 2	1347 ± 2	1314 ± 2
x2 = 0.0611	829.31 ± 0.43	822.32 ± 0.44	815.27 ± 0.45	1378 ± 2	1343 ± 2	1310 ± 2
x2 = 0.1108	830.62 ± 0.43	823.55 ± 0.44	816.41 ± 0.45	1375 ± 2	1340 ± 2	1306 ± 2
x2 = 0.1652	832.08 ± 0.43	824.91 ± 0.44	817.67 ± 0.46	1372 ± 2	1336 ± 2	1301 ± 2
x2 = 0.226	833.72 ± 0.44	826.44 ± 0.45	819.1 ± 0.46	1368 ± 2	1331 ± 2	1296 ± 2
x2 = 0.2932	835.56 ± 0.44	828.16 ± 0.45	820.7 ± 0.46	1363 ± 2	1326 ± 2	1290 ± 2
x2 = 0.3651	837.59 ± 0.44	830.07 ± 0.45	822.47 ± 0.46	1357 ± 2	1320 ± 2	1284 ± 2
x2 = 0.4248	839.34 ± 0.45	831.7 ± 0.46	824 ± 0.47	1353 ± 2	1315 ± 2	1278 ± 2
x2 = 0.5023	841.69 ± 0.45	833.91 ± 0.46	826.07 ± 0.47	1347 ± 2	1308 ± 2	1272 ± 2
x2 = 0.558	843.46 ± 0.46	835.58 ± 0.47	827.63 ± 0.48	1343 ± 2	1304 ± 2	1267 ± 2
x2 = 0.6359	846.06 ± 0.46	838.04 ± 0.47	829.95 ± 0.48	1338 ± 2	1299 ± 2	1261 ± 2
x2 = 0.7123	848.77 ± 0.47	840.61 ± 0.48	832.39 ± 0.49	1334 ± 2	1294 ± 2	1256 ± 2
x2 = 0.7744	851.12 ± 0.47	842.84 ± 0.48	834.5 ± 0.49	1332 ± 2	1291 ± 2	1252 ± 2
x2 = 0.8514	854.23 ± 0.48	845.81 ± 0.49	837.33 ± 0.5	1330 ± 2	1289 ± 2	1249 ± 2
x2 = 0.9286	857.59 ± 0.48	849.02 ± 0.49	840.41 ± 0.5	1329 ± 2	1288 ± 2	1248 ± 2
